The text below walks through data of patent US9775871B2, “Herbal compositions and methods for treating hepatic disorders” (priority 2007, dated 2017).

The subject of the assay is primary cultures of rat hepatocytes. Description: Production of free radicals (DCFH-DA fluorescence) after t-BOOH exposure.

Each structure is given as a SMILES string.

Take `O=c1c(O)c(-c2ccc(O)c(O)c2)oc2cc(O)cc(O)c12` [Quercetin, quercetin]: the “Free radicals (%)” value (5 μM, Table 1, ratio of t-BOOH positive control, positive control of the test) is recorded as 51.5 ± 2.1%; the “Free radicals (%)” value (25 μM, Table 1, ratio of t-BOOH positive control, positive control of the test) is recorded as 18.8 ± 1.2%; the “Free radicals (%)” value (25 μM, Table 2, ratio of t-BOOH control (100), median ± SE) amounted to 13.2 ± 5.6 %.
